Reference: patent publication US11319283B2, “Substituted cyclobutylbenzene compounds as indoleamine 2,3-dioxygenase (IDO) inhibitors” (MERCK SHARP & DOHME CORP., priority 2017, dated 2022)

Key:
Format in all cases: cell-based
[1] = target: T1, IDO1 (Homo sapiens, UniProt P14902); test: IDO1 Cellular Assay in Hela Cells Stimulated with IFNγ; set-up: endogenous in cells; host or cells: HeLa cells stimulated with IFNγ (100 ng/mL); conditions: Hela cells stimulated with IFNγ 100 ng/mL, 300 uM L-tryptophan, about 48 hours, fluorescence readout
T1 sequence (P14902 whole entry): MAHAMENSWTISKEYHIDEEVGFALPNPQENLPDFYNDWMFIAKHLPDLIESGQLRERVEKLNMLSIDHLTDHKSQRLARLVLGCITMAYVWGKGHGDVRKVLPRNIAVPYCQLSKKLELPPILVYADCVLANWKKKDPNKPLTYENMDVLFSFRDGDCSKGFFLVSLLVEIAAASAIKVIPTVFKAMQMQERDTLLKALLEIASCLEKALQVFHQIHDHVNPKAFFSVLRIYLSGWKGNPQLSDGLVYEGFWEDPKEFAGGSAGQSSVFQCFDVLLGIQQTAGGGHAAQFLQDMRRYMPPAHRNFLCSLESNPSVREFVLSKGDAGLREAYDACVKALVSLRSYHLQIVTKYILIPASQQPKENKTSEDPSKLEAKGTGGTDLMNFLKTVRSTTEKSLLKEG
Outline: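 HeLa cells with 300 uM L-tryptophan, IFNγ-stimulated (unstimulated cells as max-effect control), exposed to compound (ten 3-fold dilutions) for about 48 h at 37 °C. IC50 by four-parameter logistic fit.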

[2] = target: T2, TDO (Homo sapiens, UniProt P48775); test: TDO Cellular Assay in Frozen SW48 Cells; conditions: 300 uM L-tryptophan, about 48 hours, fluorescence readout
T2 construct: endogenous in cells; host or cells: SW48 cells (A2780 cells as control with minimal TDO activity)
T2 sequence (P48775 whole entry): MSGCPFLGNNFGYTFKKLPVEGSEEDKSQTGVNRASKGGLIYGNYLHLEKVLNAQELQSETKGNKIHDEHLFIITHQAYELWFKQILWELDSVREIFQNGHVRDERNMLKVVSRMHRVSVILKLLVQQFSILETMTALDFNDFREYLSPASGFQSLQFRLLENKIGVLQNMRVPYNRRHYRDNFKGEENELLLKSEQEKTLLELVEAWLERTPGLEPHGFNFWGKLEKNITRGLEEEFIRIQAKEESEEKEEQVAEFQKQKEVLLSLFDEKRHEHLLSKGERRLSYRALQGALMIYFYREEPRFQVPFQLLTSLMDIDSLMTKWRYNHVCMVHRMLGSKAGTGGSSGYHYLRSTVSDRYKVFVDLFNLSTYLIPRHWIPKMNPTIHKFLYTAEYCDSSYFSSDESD
Experimental: TDO Cellular Assay in Frozen SW48 Cells
SW48 cells were cultured in complete RPMI culture medium (90% RPMI, 10% heat-inactivated fetal bovine serum).
Compounds to be tested were serially diluted in ten 3-fold steps in DMSO starting from 10 mM DMSO stocks in Echo low volume plate(s). […] The cells were spun down at 350 g in a table top centrifuge for 5 minutes and suspended in same volume of RPMI assay medium. […] Sterile L-tryptophan (Sigma, Cat # T0254) was added to the cells with final concentration of 300 uM.
SW48 and A2780 cells were dispensed to the respective wells of 384-well assay plates containing the compounds. The plates were incubated for about 48 hours at a 37° C., 5% CO2 incubator. Afterwards, 12 μL of 0.5 M ethyl isonipecotate (Sigma Aldrich, Cat # E33505) in dimethyl sulfoxide were added into each well and the plates were sealed and incubated at 37° C. without CO2 overnight. The plates were centrifuged for 1 minute at 200×g. The resulting fluorescence was measured in a Spectramax plate reader (Molecular Devices) with a 400 nm excitation filter and a 510 nm emission filter.
(§1) The fluorescence intensity of each well was corrected for the background observed in wells with A2780 cells and was expressed as a fraction of the intensity observed in wells of SW48 cells and DMSO only. Potencies were calculated by linear least squares fit to the four parameter logistic IC50 equation.

[3] = target: T1, IDO1; test: IDO1 Human Whole Blood Assay; set-up: from tissue; host or cells: human whole blood from healthy donors, stimulated with LPS and IFNγ; conditions: LPS and IFNγ 100 ng/mL, overnight (18 h), kynurenine by LC/MS/MS
Experimental: IDO1 Human Whole Blood Assay
Compounds to be tested were serially diluted in ten 3-fold steps in DMSO starting from 10 mM. […] LPS and IFNγ was prepared in RPMI to a 10× of final conc. (1000 ng/mL), final concentration is 100 ng/mL.
Human whole blood was drawn in sodium heparin coated tubes from healthy internal donors. […] of blood was transferred to each of the wells of a v-bottom 96 well plate. […] of compound was transferred from intermediate dilution plate, and incubated for 15 min. 30 μL from stimulants was then transferred to blood and mixed thoroughly. Plate was covered with breathable membrane and incubated at 37° C. for overnight (18 h).
On day 2 isotope labeled standard of kynurenine and tryptophan was made in water at 10× concentration and […] was added to the blood at […] final concentration. The assay plates were centrifuged at 300×G for 10 min with no brake to separate plasma from red blood cells. […] of plasma samples was removed without disturbing red blood cells. Plasma was diluted with RPMI in 1:1 ratio and proteins were precipitated out with two volume of Acetonitrile. The plates was centrifuged at 4000×G for 60 min. 20 mL of supernatant was carefully transferred to a 384 well plate contain 40 mL of 0.1% formic acid in water and analyzed by LC/MS/MS.
LC/MS/MS analyses were performed using Thermo Fisher's LX4-TSQ Quantum Ultra system. This system consists of four Agilent binary high-performance liquid chromatography (HPLC) pumps and a TSQ Quantum Ultra triple quadruple MS/MS instrument. For each sample, […] were injected onto an Atlantis T3 column (2.1 mm×150 mm, […]) from Waters. The mobile phase gradient pumped at 0.8 mL/min was used to elute the analytes from the column at 25° C. […] Mobile phase A consisted of 0.1% formic acid in water. Mobile phase B consisted of 0.1% of formic acid in acetonitrile. Data was acquired in positive mode using a HESI interface. The operational parameters for the TSQ Quantum Ultra instrument were a spray voltage of 4000 V, capillary temperature of 380° C., vaporizer temperature 400° C., shealth gas 60 arbitrary units, Aux gas 20 arbitrary units, tube lens 85 and collision gas 1.2 mTorr. […] The peak area was integrated by Xcalibur Quan software. The ratios between the kynurenine generated in the reaction and 2D6-Kynurenine spiked-in internal standard were used to generate percentage inhibition and IC50 values. Compounds were titrated and IC50's were calculated by 4 parameter sigmoidal curve fitting formula.

[4] = target: T1, IDO1; test: IDO1 HEK293 Cellular Assay; conditions: HEK293 cells transfected with Flag-IDO1 vector, 20-24 hours, fluorescence readout
Experimental: IDO1 HEK293 Cellular Assay
Compounds to be tested were serially diluted in ten 3-fold steps in DMSO starting from 10 mM DMSO stocks. Compound dilutions or DMSO alone were then dispensed from the dilution plate into a Greiner black 384-well assay plate (catalog #781086) using an Echo 550 acoustic liquid handler (Labcyte).
HEK293 cell pellets were resuspended to 5×10^5 cells/mL in complete HEK293 culture media (89% DMEM, 10% FBS, 1% penicillin/streptomycin). Suspended cells (2 mL) were dispensed into each well of a 6-well Corning plate (Catalog #3516). Cells were allowed to attach and were incubated for 20 hours at 37° C. in a 5% CO2 incubator. Flag-IDO1 vector (Genscript True ORF Gold, 2 ug) in 150 uL of Opti-MEM medium was added to each well of a Corning 24 well plate (Cat #3527) and incubated for 5 minutes at room temperature. To each well of the 24-well plate was added […] Lipofectamine 2000 (Gibco) and the plate incubated at room temperature for 20-30 minutes. To each well of attached cells in the 6-well plate, […] of the transfection mix from the 24-well plate was gently added to each well and IDO1 protein was allowed to express for 24-30 hours at 37 degrees Celsius in a 5% CO2 incubator.
Media was removed from the cells which were then washed with 2 mL Dulbecco's phosphate-buffered saline (DPBS). After removal of DPBS, 0.5 mL of TrypLE (Gibco) was added and incubated at 5 minutes until cells lift from the surface of the wells. Complete HEK293 culture media (4 mL) was added to each well and cells were collected and pooled into a conical tube. Cells were pelleted at 200×g for 5 minutes and resuspended in an equal volume of complete DMEM medium. Cells were diluted to 4×10^5 cells per mL in complete HEK293 media. L-Tryptophan was added to give a final concentration of […]. The diluted transfected cells […] or nontransfected cells […] were dispensed into wells of Greiner black 384-well assay plates (catalog #781086) containing previously diluted compounds. The plate is briefly mixed and centrifuged at 200×g for 10 seconds to collect cells at the bottom of the plate. Plates were covered and incubated for 20-24 hours at 37 degrees C. in a 5% CO2 incubator. Afterwards […] of 0.5 M methyl isonipecotate in dimethyl sulfoxide was added to each well, mixed, sealed, and centrifuged at 500 rpm for 10 seconds. Plates were incubated at 37 degrees in a 5% CO2 incubator overnight to develop fluoresence. The plates are allowed to cool and then centrifuged for 1 minute at 1000×g. The resulting fluoresence was measured in an Envision plate reader (Perkin Elmer) with a 400/25 nm excitation filter and an 510/20 nm emission filter.
as §1, with “fluoresence” for “fluorescence”, “untransfected” for “A2780”, “IDO1 transfected” for “SW48”

IC50 [1] | IC50 [2] | IC50 [3] | IC50 [4] | Compound
7 nM | ≥ 10000 nM | 797 nM | – | CC1CC1NC(=O)C1(c2ccc(NC(=O)c3cccc(Cl)c3)cc2)CCC1 (single isomer, unassigned) [Example 21, 3-chloro-N-(4-(1-((2-methylcyclopropyl)carbamoyl)cyclobutyl)phenyl)benzamide]
3 nM | ≥ 10000 nM | 186 nM | – | N#Cc1ccc(C(=O)NC2(c3ccc(NC(=O)c4cccc(Cl)c4)cc3)CCC2)cc1 [Example 2, 3-Chloro-N-(4-(1-(4-cyanobenzamido)cyclobutyl)phenyl)benzamide]
4 nM | ≥ 10000 nM | 345 nM | – | O=C(Nc1ccc(C2(NC(=O)c3ccc(Cl)nc3)CCC2)cc1)c1cccc(Cl)c1 [Example 7, 6-chloro-N-(1-{4-[(3-chlorobenzene-1-carbonyl)amino]phenyl}cyclobutyl)pyridine-3-carboxamide]
28 nM | 585 nM | – | 16 nM | O=C(Nc1ccc(C2(NC(=O)c3ncco3)CCC2)cc1)c1cccc(Cl)c1 [Example 12, N-(1-{4-[(3-chlorobenzene-1-carbonyl)amino]phenyl}cyclobutyl)-1,3-oxazole-2-carboxamide]
39 nM | 1210 nM | – | 23 nM | O=C(Nc1ccc(C2(NC(=O)c3cscn3)CCC2)cc1)c1cccc(Cl)c1 [Example 14, N-(1-{4-[(3-chlorobenzene-1-carbonyl)amino]phenyl}cyclobutyl)-1,3-thiazole-4-carboxamide]
53 nM | 2510 nM | – | 14 nM | O=C(Nc1ccc(C2(NC(=O)c3nccs3)CCC2)cc1)c1cccc(Cl)c1 [Example 15, N-(1-{4-[(3-chlorobenzene-1-carbonyl)amino]phenyl}cyclobutyl)-1,3-thiazole-2-carboxamide]
108 nM | ≥ 10000 nM | – | 125 nM | O=C(Nc1ccc(C2(NC(=O)c3ccc(Cl)cc3)CCC2)cc1)c1cncnc1 [Example 17, N-(4-{1-[(4-chlorobenzene-1-carbonyl)amino]cyclobutyl}phenyl)pyrimidine-5-carboxamide]
2 nM | ≥ 10000 nM | 336 nM | – | O=C(Nc1ccc(C2(NC(=O)c3ccc(Cl)cc3)CCC2)cc1)c1cccc(Cl)c1 [Example 19, 3-Chloro-N-(4-(1-(4-chlorobenzamido)cyclobutyl)phenyl)benzamide]
4 nM | ≥ 10000 nM | 253 nM | – | O=C(Nc1ccc(C2(C(=O)Nc3ccc(F)cn3)CCC2)cc1)c1cccc(Cl)c1 [Example 28, 3-chloro-N-(4-{1-[(5-fluoropyridin-2-yl)carbamoyl]cyclobutyl}phenyl)benzamide]
5 nM | ≥ 10000 nM | 795 nM | – | O=C(Nc1ccc(C2(C(=O)NC3CCCCC3)CCC2)cc1)c1cccc(Cl)c1 [Example 30, 3-chloro-N-{4-[1-(cyclohexylcarbamoyl)cyclobutyl]phenyl} benzamide]
12 nM | ≥ 10000 nM | 738 nM | – | O=C(Nc1ccc(C2(C(=O)N[C@@H]3C[C@H]3C(F)(F)F)CCC2)cc1)c1cccc(Cl)c1 [Example 32]
15 nM | ≥ 10000 nM | 1880 nM | – | O=C(Nc1ccc(C2(C(=O)NC3CCC(F)(F)CC3)CCC2)cc1)c1cccc(Cl)c1 [Example 33, 3-chloro-N-(4-{1-[(4,4-difluorocyclohexyl)carbamoyl]cyclobutyl}phenyl) benzamide]
24 nM | ≥ 10000 nM | 1600 nM | – | Cn1ccc(NC(=O)C2(c3ccc(NC(=O)c4cccc(Cl)c4)cc3)CCC2)n1 [Example 35, 3-chloro-N-(4-{1-[(1-methyl-1H-pyrazol-3-yl)carbamoyl]cyclobutyl}phenyl)benzamide]
2 nM | ≥ 10000 nM | 70 nM | – | O=C(Nc1ccc(C2(C(=O)Nc3ccc(F)cc3)CC(F)(F)C2)cc1)c1cccc(Cl)c1 [Example 63, 3-chloro-N-(4-(3,3-difluoro-1-((4-fluorophenyl)carbamoyl)cyclobutyl)phenyl)benzamide]
5 nM | ≥ 10000 nM | 219 nM | – | O=C(Nc1ccc(C2(C(=O)Nc3ccc(F)cn3)CCC2)cc1CO)c1cccc(Cl)c1 [Example 85, 3-chloro-N-[4-{1-[(5-fluoropyridin-2-yl)carbamoyl]cyclobutyl}-2-(hydroxymethyl)phenyl] benzamide]
2 nM | ≥ 10000 nM | 57 nM | – | N#Cc1cccc(C(=O)Nc2ccc(C3(C(=O)Nc4ccc(Cl)nc4)CCC3)cc2)c1 [Example 88, N-(4-{1-[(6-chloropyridin-3-yl)carbamoyl]cyclobutyl}phenyl)-3-cyanobenzamide]
